# Positions of bridges follow the written chain, without caps; N, C: chain ends. Non-standard residues stand in square brackets, D forms with d. Residues, ends and D or L forms follow the SMILES beside them. ξ: configuration not given here. NMeIle(3ξ) = CCC(C)[C@H](NC)C(=O)O; Cit = NC(=O)NCCC[C@H](N)C(=O)O; NMeD = CN[C@@H](CC(=O)O)C(=O)O; NMeL = CN[C@@H](CC(C)C)C(=O)O; Ahp(2) = CCCCC[C@H](N)C(=O)O; NMeNle = CCCC[C@H](NC)C(=O)O; Tle = CC(C)(C)[C@H](N)C(=O)O; NHexGly = CCCCCCNCC(=O)O; Nle = CCCC[C@H](N)C(=O)O; Orn = NCCC[C@H](N)C(=O)O
# Target: T1, mouse VISTA (mVISTA) (Mus musculus, UniProt Q9D659)
# T1 construct: expressed in transfected cells; host or cells: Human embryonic kidney 293T cells
# T1 sequence (Q9D659 33-308): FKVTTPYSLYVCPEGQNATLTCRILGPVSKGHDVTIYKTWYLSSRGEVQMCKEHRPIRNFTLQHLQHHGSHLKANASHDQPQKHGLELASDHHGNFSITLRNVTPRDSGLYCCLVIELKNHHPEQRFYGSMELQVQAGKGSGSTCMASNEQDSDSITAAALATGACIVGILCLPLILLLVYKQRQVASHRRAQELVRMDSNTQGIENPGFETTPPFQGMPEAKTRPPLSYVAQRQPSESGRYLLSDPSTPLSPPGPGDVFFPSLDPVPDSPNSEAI
# Assay: Cell-Based Binding High-Content Assay For mVISTA (HC CBA mVISTA)
# Settings: read-out: HC CBA mVISTA IC50
# How it was run: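 Competition of compound with a biotinylated peptide (final 2 nM, 30 min at RT) for binding to mVISTA on 293T cells, run under no-wash or wash (1 h compound preincubation then removal) formats. Readout by Alexa 647–streptavidin imaging on a high-content platform; four-parameter logistic fit gave IC50.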
row,Compound,IC50
1,CCCCCCN1CC(=O)N[C@@H](Cc2ccc(O)cc2)C(=O)N[C@@H](CC(C)C)C(=O)NCC(=O)N[C@@H](CCCNC(=N)N)C(=O)N[C@@H](CC(C)C)C(=O)N[C@@H](CCCCC)C(=O)N2CCC[C@H]2C(=O)N[C@@H](C(C)C)C(=O)N[C@@H](CO)C(=O)N[C@H](C(=O)NCC(N)=O)CSCC(=O)N[C@@H](Cc2ccccc2)C(=O)N[C@@H](Cc2c[nH]c3ccccc23)C(=O)N[C@@H](CC(=O)O)C1=O [Example 1358] ({CH2CO}-FWD[NHexGly]YLGRL[Ahp(2)]PVSCG-NH2; thioether N-14),19.5 nM
2,CCCCCCN1CC(=O)N[C@@H](Cc2ccc(O)cc2)C(=O)N[C@@H](CCCC)C(=O)N[C@@H](CC(N)=O)C(=O)N[C@@H](CCCNC(=N)N)C(=O)N[C@@H](CC(C)C)C(=O)N[C@@H](CCCCC)C(=O)N2CCC[C@H]2C(=O)N[C@@H](C(C)C)C(=O)N[C@@H](CCCNC(=N)N)C(=O)N[C@H](C(=O)NCC(=O)O)CSCC(=O)N[C@@H](Cc2ccccc2)C(=O)N[C@@H](Cc2c[nH]c3ccccc23)C(=O)N[C@@H](CC(=O)O)C1=O [Example 1360] ({CH2CO}-FWD[NHexGly]Y[Nle]NRL[Ahp(2)]PVRCG-OH; thioether N-14),28.4 nM
3,CCCCCCN1CC(=O)N[C@@H](Cc2ccc(O)cc2)C(=O)N[C@@H](CCCC)C(=O)N[C@@H](CC(=O)O)C(=O)N[C@@H](CCCN)C(=O)N[C@@H](CC(C)C)C(=O)N[C@@H](CCCCC)C(=O)N2CCC[C@H]2C(=O)N[C@@H](C(C)C)C(=O)N[C@@H](CC(=O)O)C(=O)N[C@H](C(=O)N[C@@H](CO)C(N)=O)CSCC(=O)N[C@@H](Cc2ccccc2)C(=O)N[C@@H](Cc2c[nH]c3ccccc23)C(=O)N[C@@H](CC(=O)O)C1=O [Example 1365] ({CH2CO}-FWD[NHexGly]Y[Nle]D[Orn]L[Ahp(2)]PVDCS-NH2; thioether N-14),7.7 nM
4,CCCCCCN1CC(=O)N[C@@H](Cc2ccc(O)cc2)C(=O)N[C@@H](CCCC)C(=O)N[C@@H](CC(=O)O)C(=O)N[C@@H](CCCNC(=N)N)C(=O)N[C@@H](CC(C)C)C(=O)N[C@@H](CCCCC)C(=O)N2CCC[C@H]2C(=O)N[C@@H](C(C)C)C(=O)N[C@@H](CC(=O)O)C(=O)N[C@H](C(=O)N[C@@H](CO)C(N)=O)CSCC(=O)N[C@@H](Cc2ccccc2)C(=O)N[C@@H](Cc2c[nH]c3ccccc23)C(=O)N[C@@H](CC(=O)O)C1=O [Example 1366] ({CH2CO}-FWD[NHexGly]Y[Nle]DRL[Ahp(2)]PVDCS-NH2; thioether N-14),11.6 nM
5,CCCCCCN1CC(=O)N[C@@H](Cc2ccc(O)cc2)C(=O)N[C@@H](CCCC)C(=O)N[C@@H](CC(N)=O)C(=O)N[C@@H](CCCNC(=N)N)C(=O)N(C)[C@@H](C(C)CC)C(=O)N[C@@H](CCCCC)C(=O)N2CCC[C@H]2C(=O)N[C@@H](C(C)C)C(=O)N[C@@H](CC(=O)O)C(=O)N[C@H](C(=O)NCC(=O)O)CSCC(=O)N[C@@H](Cc2ccccc2)C(=O)N[C@@H](Cc2c[nH]c3ccccc23)C(=O)N[C@@H](CC(=O)O)C1=O (stereo partly drawn) [Example 1367] ({CH2CO}-FWD[NHexGly]Y[Nle]NR[NMeIle(3ξ)][Ahp(2)]PVDCG-OH; thioether N-14),11.1 nM
6,CCCCCCN1CC(=O)N[C@@H](Cc2ccc(O)cc2)C(=O)N[C@@H](CCCC)C(=O)N[C@@H](CC(N)=O)C(=O)N[C@@H](CCCNC(=N)N)C(=O)N(C)[C@@H](CC(C)C)C(=O)N[C@@H](CCCCC)C(=O)N2CCC[C@H]2C(=O)N[C@@H](C(C)C)C(=O)N[C@@H](CC(=O)O)C(=O)N[C@H](C(=O)NCC(=O)O)CSCC(=O)N[C@@H](Cc2ccccc2)C(=O)N[C@@H](Cc2c[nH]c3ccccc23)C(=O)N[C@@H](CC(=O)O)C1=O [Example 1369] ({CH2CO}-FWD[NHexGly]Y[Nle]NR[NMeL][Ahp(2)]PVDCG-OH; thioether N-14),3.5 nM
7,CCCCCCN1CC(=O)N[C@@H](Cc2ccc(O)cc2)C(=O)N[C@@H](CCCC)C(=O)N[C@@H](CC(N)=O)C(=O)N[C@@H](CCCNC(=N)N)C(=O)N(C)[C@@H](CC(C)C)C(=O)N[C@@H](CCCCC)C(=O)N2CCC[C@H]2C(=O)N[C@@H](C(C)C)C(=O)N[C@@H](CC(=O)O)C(=O)N[C@H](C(=O)N[C@@H](CO)C(=O)O)CSCC(=O)N[C@@H](Cc2ccccc2)C(=O)N[C@@H](Cc2c[nH]c3ccccc23)C(=O)N[C@@H](CC(=O)O)C1=O [Example 1370] ({CH2CO}-FWD[NHexGly]Y[Nle]NR[NMeL][Ahp(2)]PVDCS-OH; thioether N-14),18.7 nM
8,CCCCCCN1CC(=O)N[C@@H](Cc2ccc(O)cc2)C(=O)N[C@@H](CCCC)C(=O)N[C@@H](CC(N)=O)C(=O)N[C@@H](CCCNC(=N)N)C(=O)N(C)[C@@H](CCCC)C(=O)N[C@@H](CCCCC)C(=O)N2CCC[C@H]2C(=O)N[C@@H](C(C)(C)C)C(=O)N[C@@H](CC(=O)O)C(=O)N[C@H](C(=O)N[C@@H](CC(=O)O)C(N)=O)CSCC(=O)N[C@@H](Cc2ccccc2)C(=O)N[C@@H](Cc2c[nH]c3ccccc23)C(=O)N[C@@H](CC(=O)O)C1=O [Example 1371] ({CH2CO}-FWD[NHexGly]Y[Nle]NR[NMeNle][Ahp(2)]P[Tle]DCD-NH2; thioether N-14),36.6 nM

# Other lines, results leading:
row,IC50,Compound
1,17.1 nM,CCCCCCN1CC(=O)N[C@@H](Cc2ccc(O)cc2)C(=O)N[C@@H](CC(C)C)C(=O)N[C@@H](CC(=O)O)C(=O)N[C@@H](CCCN)C(=O)N[C@@H](CC(C)C)C(=O)N[C@@H](CCCCC)C(=O)N2CCC[C@H]2C(=O)N[C@@H](C(C)C)C(=O)N[C@@H](CO)C(=O)N[C@H](C(=O)NCC(N)=O)CSCC(=O)N[C@@H](Cc2ccccc2)C(=O)N[C@@H](Cc2c[nH]c3ccccc23)C(=O)N[C@@H](CC(=O)O)C1=O [Example 1359] ({CH2CO}-FWD[NHexGly]YLD[Orn]L[Ahp(2)]PVSCG-NH2; thioether N-14)
2,5.2 nM,CCCCCCN1CC(=O)N[C@@H](Cc2ccc(O)cc2)C(=O)N[C@@H](CCCC)C(=O)N[C@@H](CC(N)=O)C(=O)N[C@@H](CCCNC(=N)N)C(=O)N[C@@H](CC(C)C)C(=O)N[C@@H](CCCCC)C(=O)N2CCC[C@H]2C(=O)N[C@@H](C(C)C)C(=O)N[C@@H](CC(=O)O)C(=O)N[C@H](C(=O)NCC(=O)O)CSCC(=O)N[C@@H](Cc2ccccc2)C(=O)N[C@@H](Cc2c[nH]c3ccccc23)C(=O)N[C@@H](CC(=O)O)C1=O [Example 1361] ({CH2CO}-FWD[NHexGly]Y[Nle]NRL[Ahp(2)]PVDCG-OH; thioether N-14)
3,4 nM,CCCCCCN1CC(=O)N[C@@H](Cc2ccc(O)cc2)C(=O)N[C@@H](CCCC)C(=O)N[C@@H](CC(N)=O)C(=O)N[C@@H](CCCNC(N)=O)C(=O)N[C@@H](CC(C)C)C(=O)N[C@@H](CCCCC)C(=O)N2CCC[C@H]2C(=O)N[C@@H](C(C)C)C(=O)N[C@@H](CC(=O)O)C(=O)N[C@H](C(=O)NCC(=O)O)CSCC(=O)N[C@@H](Cc2ccccc2)C(=O)N[C@@H](Cc2c[nH]c3ccccc23)C(=O)N[C@@H](CC(=O)O)C1=O [Example 1363] ({CH2CO}-FWD[NHexGly]Y[Nle]N[Cit]L[Ahp(2)]PVDCG-OH; thioether N-14)
4,44 nM,CCCCCCN1CC(=O)N[C@@H](Cc2ccc(O)cc2)C(=O)N[C@@H](CCCC)C(=O)N[C@@H](CC(N)=O)C(=O)N[C@@H](CCCNC(=N)N)C(=O)N[C@@H](CC(C)C)C(=O)N[C@@H](CCCCC)C(=O)N2CCC[C@H]2C(=O)N[C@@H](C(C)(C)C)C(=O)N[C@@H](CO)C(=O)N[C@H](C(=O)NCC(N)=O)CSCC(=O)N[C@@H](Cc2ccccc2)C(=O)N[C@@H](Cc2c[nH]c3ccccc23)C(=O)N[C@@H](CC(=O)O)C1=O [Example 1364] ({CH2CO}-FWD[NHexGly]Y[Nle]NRL[Ahp(2)]P[Tle]SCG-NH2; thioether N-14)
5,37 nM,CCCCCCN1CC(=O)N[C@@H](Cc2ccc(O)cc2)C(=O)N[C@@H](CCCC)C(=O)N[C@@H](CC(N)=O)C(=O)N[C@@H](CCCNC(=N)N)C(=O)N(C)[C@@H](CC(=O)O)C(=O)N[C@@H](CCCCC)C(=O)N2CCC[C@H]2C(=O)N[C@@H](C(C)C)C(=O)N[C@@H](CC(=O)O)C(=O)N[C@H](C(=O)NCC(=O)O)CSCC(=O)N[C@@H](Cc2ccccc2)C(=O)N[C@@H](Cc2c[nH]c3ccccc23)C(=O)N[C@@H](CC(=O)O)C1=O [Example 1368] ({CH2CO}-FWD[NHexGly]Y[Nle]NR[NMeD][Ahp(2)]PVDCG-OH; thioether N-14)
6,16.4 nM,CCCCCCN1CC(=O)N[C@@H](Cc2ccc(O)cc2)C(=O)N[C@@H](CCCC)C(=O)N[C@@H](CC(=O)O)C(=O)N[C@@H](CCCN)C(=O)N(C)[C@@H](CCCC)C(=O)N[C@@H](CCCCC)C(=O)N2CCC[C@H]2C(=O)N[C@@H](C(C)(C)C)C(=O)N[C@@H](CC(=O)O)C(=O)N[C@H](C(=O)N[C@@H](CC(=O)O)C(N)=O)CSCC(=O)N[C@@H](Cc2ccccc2)C(=O)N[C@@H](Cc2c[nH]c3ccccc23)C(=O)N[C@@H](CC(=O)O)C1=O [Example 1372] ({CH2CO}-FWD[NHexGly]Y[Nle]D[Orn][NMeNle][Ahp(2)]P[Tle]DCD-NH2; thioether N-14)
7,14.8 nM,CCCCCCN1CC(=O)N[C@@H](Cc2ccc(O)cc2)C(=O)N[C@@H](CCCC)C(=O)N[C@@H](CC(N)=O)C(=O)N[C@@H](CCCN)C(=O)N(C)[C@@H](CCCC)C(=O)N[C@@H](CCCCC)C(=O)N2CCC[C@H]2C(=O)N[C@@H](C(C)(C)C)C(=O)N[C@@H](CC(=O)O)C(=O)N[C@H](C(=O)N[C@@H](CC(=O)O)C(N)=O)CSCC(=O)N[C@@H](Cc2ccccc2)C(=O)N[C@@H](Cc2c[nH]c3ccccc23)C(=O)N[C@@H](CC(=O)O)C1=O [Example 1373] ({CH2CO}-FWD[NHexGly]Y[Nle]N[Orn][NMeNle][Ahp(2)]P[Tle]DCD-NH2; thioether N-14)
